From patent US4988681A, “Phosphinic acid derivatives” (Banyu Pharmaceutical Co., Ltd., priority 1988, dated 1991)

Key:
ddY mice = assay: Acute toxicity test in mice; type: in vivo, Male ddY mice; details: 7 days
Description: (5) Acute toxicity test in mice
Male ddY mice (4 week-old; body weight 24-26 g) were divided into groups each consisting of 5 animals. The compound No. 2 was intravenously administered to a first group in a dose of 2,000 mg/kg. The compound No. 2 was orally administered to a second group in a dose of 4,000 mg/kg. After the administration, the incidence of death was observed over 7 days after the administration, and the results are shown in Table 5.

[1] = Pharmacokinetic evaluation: plasma concentration in rats; type: in vivo, Male SD rats; details: plasma, rat; for AUC: trapezoidal rule; for concentration at 0.5 h: 1/2 h; for concentration at 0.25 h: 1/4 h; for concentration at 5 min: 1/12 h
[2] = target: T1, porcine kidney dehydropeptidase I (Sus scrofa, UniProt P22412); assay: Inhibitory activity on porcine kidney dehydropeptidase I (DHP-I); type: biochemical; details: substrate glycyldehydrophenylalanine, pH 7.4, 37° C., 3 h pre-incubation; read-out: Concentration producing 50% inhibition (IC50)
T1 construct: Frozen porcine kidney cortex was homogenized; from tissue; host or cells: porcine kidney cortex
T1 sequence (P22412 17-409): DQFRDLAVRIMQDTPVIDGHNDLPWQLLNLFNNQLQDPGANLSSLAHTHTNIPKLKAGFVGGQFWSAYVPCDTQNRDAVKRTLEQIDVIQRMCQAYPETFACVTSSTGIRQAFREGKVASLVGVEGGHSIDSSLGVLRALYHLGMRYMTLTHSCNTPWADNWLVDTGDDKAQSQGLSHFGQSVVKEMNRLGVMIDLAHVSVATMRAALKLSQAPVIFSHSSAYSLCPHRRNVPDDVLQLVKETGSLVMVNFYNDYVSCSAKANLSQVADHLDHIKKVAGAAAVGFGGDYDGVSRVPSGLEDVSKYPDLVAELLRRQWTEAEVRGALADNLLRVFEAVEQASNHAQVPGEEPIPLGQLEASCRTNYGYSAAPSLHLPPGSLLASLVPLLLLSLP

[3] = Effect on urinary recovery of carbapenem (imipenem) in rats; type: in vivo, Male SD rats; details: urine up to 8 hours, n = 3
Description: (2) Effect on urinary recovery of carbapenem
Male SD rats (8 week-old) were grouped, three per group. Imipenem alone was intravenously administered in a dose of 10 mg/kg to a first group. […] For comparison, a combination of imipenem (10 mg/kg) and cilastatin (10 mg/kg) was intravenously administered to a fourth group.
The urinary recovery of imipenem was calculated.

[4] = test system: nephrotoxicity induced by imipenem; assay: Protective action on nephrotoxicity induced by imipenem in rabbits; type: in vivo, male Japanese white rabbits; details: compound 150 mg/kg + imipenem 150 mg/kg
Description: (3) Protective action on nephrotoxicity induced by carbapenem antibiotics
Twelve male Japanese white rabbits (18 week-old; body weight 3.19-3.54 kg) were divided into three groups each consisting of 4 animals. Imipenem alone was administered in a dose of 150 mg/kg to a first group. To a second group, a combination of imipenem (150 mg/kg) and the compound No. 2 (150 mg/kg) was administered. To a third group as a control, sterilized physiological saline was administered. In all cases, the administration was effected through the auricular vein. Forty-eight hours later, a blood sample was taken from each of the animals, and the BUN and creatinine values were measured. The kidneys of the rabbits were taken and examined histopathologically.

[5] = iv 10 mg/kg (cilastatin dose not given)

CC(C)CP(=O)(O)C/C(=C\C1CCCCC1)C(=O)O [Compound No. 2, (Z)-3-cyclohexyl-2-(hydroxyisobutylphosphinoyl)methylpropenoic acid]
Mortality, number of dead mice versus number of mice tested (ddY mice; i.v. 2,000 mg/kg): 0/5
Mortality, number of dead mice versus number of mice tested (ddY mice; p.o. 4,000 mg/kg): 0/5
AUC [1, 5]: 162000 ng·h/mL
AUC ([1]; po 10 mg/kg): 24300 ng·h/mL
concentration at 0.5 h [1, 5]: 53700 ng/mL
concentration at 0.25 h [1, 5]: 60700 ng/mL
concentration at 5 min [1, 5]: 84900 ng/mL
concentration at 1 h ([1]; iv 10 mg/kg (cilastatin dose not given), N.D.: below the detection limit): 42400 ng/mL
concentration at 2 h ([1]; iv 10 mg/kg): 21800 ng/mL
concentration at 4 h ([1]; iv 10 mg/kg): 10500 ng/mL
concentration at 6 h ([1]; iv 10 mg/kg, N.D.: below the detection limit): 5400 ng/mL
concentration at 8 h ([1]; iv 10 mg/kg): 2500 ng/mL
concentration at 0.5 h ([1]; po 10 mg/kg): 6800 ng/mL
concentration at 0.25 h ([1]; po 10 mg/kg): 6600 ng/mL
concentration at 5 min ([1]; po 10 mg/kg): 3300 ng/mL
concentration at 1 h ([1]; po 10 mg/kg): 5400 ng/mL
concentration at 2 h ([1]; po 10 mg/kg): 3800 ng/mL
concentration at 4 h ([1]; po 10 mg/kg): 2100 ng/mL
concentration at 6 h ([1]; po 10 mg/kg): 1200 ng/mL
concentration at 8 h ([1]; po 10 mg/kg, N.D.: below the detection limit): 400 ng/mL
IC50 [2]: 13 nM
Urinary recovery of imipenem, Mean ± S.D. ([3]; inhibitor 10 mg/kg iv with imipenem 10 mg/kg iv): 95.3 ± 6.1%
Urinary recovery of imipenem, Mean ± S.D. ([3]; inhibitor 10 mg/kg po 30 minutes before imipenem 10 mg/kg iv): 52.1 ± 4.9%
Necrosis of the kidney tissue, number of rabbits which necrotized versus number tested [4]: 0/4
BUN ([4]; auricular vein, 48 hours): 16.2 mg/100 ml
Creatinine ([4]; auricular vein, 48 hours): 1.49 mg/dL
Necrosis of the kidney tissue ([4]; grade in words): None
